Reference: ChEMBL document CHEMBL1667786, “Synthesis and biological evaluation of indole-chalcone derivatives as β-amyloid imaging probe” (Bioorg Med Chem Lett, 2011)
Calls of active or inactive are those of the source. No cut-off for these calls is given here.

What was measured:
[1] = Displacement of [125I]IMPY from amyloid beta 1 to 42 after 2 hrs
Mus musculus [2] = species on record: Mus musculus; assay: Binding affinity to amyloid beta in APP/PS1 transgenic C57 mouse brain at 1 uM after 10 mins by Thioflavin-S fluorescence assay; type: tissue-based; details: tested as the 125I-labelled form
Mus musculus [3] = species on record: Mus musculus; assay: Binding affinity to amyloid beta in APP/PS1 transgenic C57 mouse cortex at 1 uM after 10 mins by autoradiography; details: tested as the 125I-labelled form
Blood [4] = assay: Biodistribution in ddY mouse blood assessed per gram of tissue at 1 uCi, iv after 2 mins; type: ADME, organism-based; details: in vivo
Brain [5] = assay: Biodistribution in ddY mouse brain assessed per gram of tissue at 1 uCi, iv after 120 mins; type: ADME, organism-based; details: in vivo, 2 h
Kidney [6] = assay: Biodistribution in ddY mouse kidney assessed per gram of tissue at 1 uCi, iv after 30 mins; type: ADME, organism-based; details: in vivo, 0.5 h
Lung [7] = assay: Biodistribution in ddY mouse lung assessed per gram of tissue at 1 uCi, iv after 2 mins; type: ADME, organism-based; details: in vivo
Liver [8] = assay: Biodistribution in ddY mouse liver assessed per gram of tissue at 1 uCi, iv after 120 mins; type: ADME, organism-based; details: in vivo, 2 h
Spleen [9] = assay: Biodistribution in ddY mouse spleen assessed per gram of tissue at 1 uCi, iv after 15 mins; type: ADME, organism-based; details: in vivo, 0.25 h
Blood [10] = assay: Biodistribution in ddY mouse blood assessed per gram of tissue at 1 uCi, iv after 30 mins; type: ADME, organism-based; details: in vivo, 0.5 h
Intestine [11] = assay: Biodistribution in ddY mouse intestine assessed per gram of tissue at 1 uCi, iv after 15 mins; type: ADME, organism-based; details: in vivo, 0.25 h
Stomach [12] = assay: Biodistribution in ddY mouse stomach assessed per gorgan at 1 uCi, iv after 60 mins; type: ADME, organism-based; details: in vivo, 1 h
Liver [13] = assay: Biodistribution in ddY mouse liver assessed per gram of tissue at 1 uCi, iv after 60 mins; type: ADME, organism-based; details: in vivo, 1 h
Kidney [14] = assay: Biodistribution in ddY mouse kidney assessed per gram of tissue at 1 uCi, iv after 60 mins; type: ADME, organism-based; details: in vivo, 1 h
Liver [15] = assay: Biodistribution in ddY mouse liver assessed per gram of tissue at 1 uCi, iv after 2 mins; type: ADME, organism-based; details: in vivo
Stomach [16] = assay: Biodistribution in ddY mouse stomach assessed per gorgan at 1 uCi, iv after 15 mins; type: ADME, organism-based; details: in vivo, 0.25 h
Kidney [17] = assay: Biodistribution in ddY mouse kidney assessed per gram of tissue at 1 uCi, iv after 120 mins; type: ADME, organism-based; details: in vivo, 2 h
Intestine [18] = assay: Biodistribution in ddY mouse intestine assessed per gram of tissue at 1 uCi, iv after 30 mins; type: ADME, organism-based; details: in vivo, 0.5 h
Lung [19] = assay: Biodistribution in ddY mouse lung assessed per gram of tissue at 1 uCi, iv after 15 mins; type: ADME, organism-based; details: in vivo, 0.25 h
Intestine [20] = assay: Biodistribution in ddY mouse intestine assessed per gram of tissue at 1 uCi, iv after 120 mins; type: ADME, organism-based; details: in vivo, 2 h
Spleen [21] = assay: Biodistribution in ddY mouse spleen assessed per gram of tissue at 1 uCi, iv after 30 mins; type: ADME, organism-based; details: in vivo, 0.5 h
Kidney [22] = assay: Biodistribution in ddY mouse kidney assessed per gram of tissue at 1 uCi, iv after 15 mins; type: ADME, organism-based; details: in vivo, 0.25 h
Lung [23] = assay: Biodistribution in ddY mouse lung assessed per gram of tissue at 1 uCi, iv after 30 mins; type: ADME, organism-based; details: in vivo, 0.5 h
Blood [24] = assay: Biodistribution in ddY mouse blood assessed per gram of tissue at 1 uCi, iv after 60 mins; type: ADME, organism-based; details: in vivo, 1 h
Brain [25] = assay: Biodistribution in ddY mouse brain assessed per gram of tissue at 1 uCi, iv after 15 mins; type: ADME, organism-based; details: in vivo, 0.25 h
Heart [26] = assay: Biodistribution in ddY mouse heart assessed per gram of tissue at 1 uCi, iv after 60 mins; type: ADME, organism-based; details: in vivo, 1 h
Heart [27] = assay: Biodistribution in ddY mouse heart assessed per gram of tissue at 1 uCi, iv after 30 mins; type: ADME, organism-based; details: in vivo, 0.5 h
Spleen [28] = assay: Biodistribution in ddY mouse spleen assessed per gram of tissue at 1 uCi, iv after 120 mins; type: ADME, organism-based; details: in vivo, 2 h
Blood [29] = assay: Biodistribution in ddY mouse blood assessed per gram of tissue at 1 uCi, iv after 15 mins; type: ADME, organism-based; details: in vivo, 0.25 h
Stomach [30] = assay: Biodistribution in ddY mouse stomach assessed per gorgan at 1 uCi, iv after 2 mins; type: ADME, organism-based; details: in vivo
Brain [31] = assay: Biodistribution in ddY mouse brain assessed per gram of tissue at 1 uCi, iv after 60 mins; type: ADME, organism-based; details: in vivo, 1 h
Spleen [32] = assay: Biodistribution in ddY mouse spleen assessed per gram of tissue at 1 uCi, iv after 60 mins; type: ADME, organism-based; details: in vivo, 1 h
Heart [33] = assay: Biodistribution in ddY mouse heart assessed per gram of tissue at 1 uCi, iv after 120 mins; type: ADME, organism-based; details: in vivo, 2 h
Brain [34] = assay: Biodistribution in ddY mouse brain assessed per gram of tissue at 1 uCi, iv after 30 mins; type: ADME, organism-based; details: in vivo, 0.5 h
Liver [35] = assay: Biodistribution in ddY mouse liver assessed per gram of tissue at 1 uCi, iv after 15 mins; type: ADME, organism-based; details: in vivo, 0.25 h
Blood [36] = assay: Biodistribution in ddY mouse blood assessed per gram of tissue at 1 uCi, iv after 120 mins; type: ADME, organism-based; details: in vivo, 2 h
Lung [37] = assay: Biodistribution in ddY mouse lung assessed per gram of tissue at 1 uCi, iv after 60 mins; type: ADME, organism-based; details: in vivo, 1 h
Brain [38] = assay: Biodistribution in ddY mouse brain assessed per gram of tissue at 1 uCi, iv after 2 mins; type: ADME, organism-based; details: in vivo
Heart [39] = assay: Biodistribution in ddY mouse heart assessed per gram of tissue at 1 uCi, iv after 2 mins; type: ADME, organism-based; details: in vivo
Intestine [40] = assay: Biodistribution in ddY mouse intestine assessed per gram of tissue at 1 uCi, iv after 2 mins; type: ADME, organism-based; details: in vivo
Heart [41] = assay: Biodistribution in ddY mouse heart assessed per gram of tissue at 1 uCi, iv after 15 mins; type: ADME, organism-based; details: in vivo, 0.25 h
Stomach [42] = assay: Biodistribution in ddY mouse stomach assessed per gorgan at 1 uCi, iv after 120 mins; type: ADME, organism-based; details: in vivo, 2 h
Kidney [43] = assay: Biodistribution in ddY mouse kidney assessed per gram of tissue at 1 uCi, iv after 2 mins; type: ADME, organism-based; details: in vivo
Liver [44] = assay: Biodistribution in ddY mouse liver assessed per gram of tissue at 1 uCi, iv after 30 mins; type: ADME, organism-based; details: in vivo, 0.5 h
Intestine [45] = assay: Biodistribution in ddY mouse intestine assessed per gram of tissue at 1 uCi, iv after 60 mins; type: ADME, organism-based; details: in vivo, 1 h
Lung [46] = assay: Biodistribution in ddY mouse lung assessed per gram of tissue at 1 uCi, iv after 120 mins; type: ADME, organism-based; details: in vivo, 2 h
Spleen [47] = assay: Biodistribution in ddY mouse spleen assessed per gram of tissue at 1 uCi, iv after 2 mins; type: ADME, organism-based; details: in vivo
Stomach [48] = assay: Biodistribution in ddY mouse stomach assessed per gorgan at 1 uCi, iv after 30 mins; type: ADME, organism-based; details: in vivo, 0.5 h

CN(C)c1ccc(/C=C/C(=O)c2ccc(I)cc2)cc1
Activity [1]: Dose-dependent effect
Ki [1]: 1.97 nM

O=C(/C=C/c1ccc2[nH]ccc2c1)c1ccc(F)cc1
Ki [1]: 35.1 nM

O=C(/C=C/c1ccc2[nH]ccc2c1)c1ccc(I)cc1
Activity (Mus musculus [2]): Active
Ki [1]: 8.22 nM
Activity (Mus musculus [3]): Active

Nc1ccc(C(=O)/C=C/c2ccc3[nH]ccc3c2)cc1
Ki [1]: > 1010 nM

O=C(/C=C/c1ccc2[nH]ccc2c1)c1ccc(Br)cc1
Ki [1]: 8.96 nM

COc1ccc(C(=O)/C=C/c2ccc3[nH]ccc3c2)cc1
Ki [1]: 8.52 nM

CNc1ccc(C(=O)/C=C/c2ccc3[nH]ccc3c2)cc1
Ki [1]: 51.1 nM

CN(C)c1ccc(C(=O)/C=C/c2ccc3[nH]ccc3c2)cc1
Ki [1]: 5.17 nM

O=C(/C=C/c1ccc2[nH]ccc2c1)c1ccc(Cl)cc1
Ki [1]: 8.43 nM

COc1ccc2cc(C(=O)/C=C/c3ccc4[nH]ccc4c3)ccc2c1
Ki [1]: 4.46 nM

O=C(/C=C/c1ccc2[nH]ccc2c1)c1ccc(O)cc1
Ki [1]: > 360 nM

O=C(/C=C/c1ccc2[nH]ccc2c1)c1ccc([125I])cc1
Drug uptake (Blood [4]): 8.85 %ID
Drug uptake (Brain [5]): 0.13 %ID
Drug uptake (Kidney [6]): 3.26 %ID
Drug uptake (Lung [7]): 7.33 %ID
Drug uptake (Liver [8]): 1.43 %ID
Drug uptake (Spleen [9]): 2.96 %ID
Drug uptake (Blood [10]): 4.79 %ID
Drug uptake (Intestine [11]): 2.01 %ID
Drug uptake (Stomach [12]): 0.96 %ID
Drug uptake (Liver [13]): 1.48 %ID
Drug uptake (Kidney [14]): 3.11 %ID
Drug uptake (Liver [15]): 2.69 %ID
Drug uptake (Stomach [16]): 1.07 %ID
Drug uptake (Kidney [17]): 2.78 %ID
Drug uptake (Intestine [18]): 2.32 %ID
Drug uptake (Lung [19]): 4.86 %ID
Drug uptake (Intestine [20]): 2.13 %ID
Drug uptake (Spleen [21]): 2.4 %ID
Drug uptake (Kidney [22]): 4.03 %ID
Drug uptake (Lung [23]): 4.2 %ID
Drug uptake (Blood [24]): 4.15 %ID
Drug uptake (Brain [25]): 0.29 %ID
Drug uptake (Heart [26]): 1.61 %ID
Drug uptake (Heart [27]): 1.72 %ID
Drug uptake (Spleen [28]): 1.89 %ID
Drug uptake (Blood [29]): 5.7 %ID
Drug uptake (Stomach [30]): 2.01 %ID
Drug uptake (Brain [31]): 0.21 %ID
Drug uptake (Spleen [32]): 2.27 %ID
Drug uptake (Heart [33]): 1.33 %ID
Drug uptake (Brain [34]): 0.2 %ID
Drug uptake (Liver [35]): 2.21 %ID
Drug uptake (Blood [36]): 3.72 %ID
Drug uptake (Lung [37]): 3.4 %ID
Drug uptake (Brain [38]): 0.41 %ID
Drug uptake (Heart [39]): 3.27 %ID
Drug uptake (Intestine [40]): 1.36 %ID
Drug uptake (Heart [41]): 2.27 %ID
Drug uptake (Stomach [42]): 1.19 %ID
Drug uptake (Kidney [43]): 7.3 %ID
Drug uptake (Liver [44]): 1.91 %ID
Drug uptake (Intestine [45]): 1.72 %ID
Drug uptake (Lung [46]): 3.19 %ID
Drug uptake (Spleen [47]): 3.02 %ID
Drug uptake (Stomach [48]): 0.85 %ID
